We go through two substances from US20020183684A1, “Electroporation-enhanced inhibition of vascular neointimal hyperplasia” (GENETRONICS, priority 1996, published 2002).

“Also recorded” adds a separate entry of the source.

One data set deals with porcine artery. The settings on record: cited from earlier work.
Data set [1] has as its system balloon injured rat carotid arteries (neointimal hyperplasia). The data set is described as follows: Balloon injury of rat carotid arteries, local heparin delivery with or without electroporation, arterial morphometry at day 28. The format is in vivo. The settings on record: for Active lumen area / Intimal wall thickness / Mean intimal area / Medial area / Intima/media thickness ratio: day 28, mean ± SEM; for Neointima formation (in words): 28 days. The procedure:
Mature adult male Sprague-Dawley rats (Harlan, San Diego, Calif.) with an average body weight of 423.8±8.6 (SEM) gm were housed in individual cages in light-dark cycled, temperature-controlled rooms. Standard laboratory chow and water were available ad lib. After a minimum of 7 days acclimatization, the rats were anesthetized with an intramuscular injection of ketamine, 90 mg/kg (Phoenix, St. Joseph, Mo.) and xylazine, 15 mg/kg (Fermenta, Kansas City, Mo.). After anesthesia, they were strapped supine on a surgical table with body temperature maintained at 37° C. using a thermostatic blanket. The animals breathed spontaneously and Lead II electrocardiogram was monitored throughout the experiment. […] All procedures conformed to the guiding principles of the American Physiological Society and Institutional Animal Care and Use Committee (Department of Health and Human Services, National Institutes of Health).
Neointimal hyperplasia in rats was induced by a technique described earlier by Clowes et al. (A. W. Clowes and M. M. Clowes, supra). Briefly, the left and right common carotid arteries (CCA) were isolated through cervical incision. After isolation of the arteries, the left CCA at the thoracic entry point was temporarily clamped with a bulldog clip. The right CCA served as a control artery and was not surgically manipulated. The left CCA was catheterized through a proximal incision at the junction of the internal and external carotid arteries with a 2F Fogarty embolectomy catheter (Baxter Healthcare Corporation, Irvine, Calif.). The catheter was advanced to the distal CCA, inflated with 0.3 ml of ambient air for 30 sec each time, and retracted to the internal carotid-external carotid junction three times, with one rotation after each passage to ensure uniform injury of the arterial wall. The Fogarty catheter was then withdrawn and exchanged for a porous balloon electroporation (PBE) catheter.
The PBE catheter (manufactured by Danforth Biomedical, Santa Clara, Calif. as per design provided by Genetronics, Inc., San Diego, Calif.) is comprised of a 2F, triple-lumen shaft with a porous 1.5 cm long PET balloon at the distal end. Catheter lumens are used for passage of a 0.014″ guide wire for balloon inflation and deflation and as a conduit for the lead to the central electrode inside the balloon. The balloon has an inflated diameter of 1.4 mm, with four rows of 7 holes each (nominal hole size: 15-25 μm). The balloon serves as a reservoir for the heparin-containing composition. The central electrode inside the balloon is a coiled silver wire wrapped tightly and densely around the catheter shaft, over a length of approximately 10 mm. This balloon electrode acts as the cathode and the inserted guidewire as the anode. The distance between the distal end of the balloon electrode and the proximal end of the bare zone of the conductive guidewire was 4 mm (FIG. 9).
Following balloon catheter injury of the left CCA, rats were divided into three groups. Groupl received local intracarotid delivery of heparin (Elkins-Sinn, Cherry Hill, N.J.), but no electrical pulsing (positive untreated test: H+E−; H stands for heparin and E for electrical pulsing; + or − designate […] of H or E, respectively). Group 2 received a sequence of four electroporative pulses in the presence of heparin (positive treated test: H+E+). The uninjured right CCA of all animals comprised Group 3 which received neither drug nor electrical pulses and served as negative untreated control (H−E−).
Immediately following balloon injury of the vessel, a PBE catheter was introduced into the injured portion of the left CCA after placement of a temporary clip at the distal end of the balloon injured segment. Heparin (200 IU in 0.1 ml) (Elkins-Sinn) was delivered through the balloon pores into the arterial wall over a period of approx. 20 seconds. […]

Another data set concerns porcine carotid artery. The following applies: pig, in vivo; cited from earlier work.
Where [2] appears, read: Group 2 H+E+ Inj+, with electroporation.

As to heparin, in the data set on porcine artery (approximately 1 hour after iontophoretic delivery), the “Fraction of drug washed out” value is listed as 96%. In addition, in the data set with porcine artery (heparin 1000 U to 20,000 U/ml), the “Concentration remaining in the vessel, IO versus passive delivery” value is “greater concentrations remaining in the vessel”. The “Safety of iontophoretic delivery” value in the data set on porcine artery (heparin 1000 U/ml, coronary angiography, blood pressure, cardiac rhythm) is “safe and well tolerated”. In the data set on porcine artery (pig balloon injury model, following IO delivery), the Platelet deposition entry is listed as “reduced”. Further, the Active lumen area in data set [1] (Group 1 H+E− Inj+, no pulsing) was 0.295 sq. mm; in data set [1] (setting [2]), 0.902 sq. mm. In addition, the Intimal wall thickness is reported as 541 μm in data set [1] (Group 1 H+E− Inj+, no pulsing) and 26.10 μm in data set [1] (setting [2]). Also, the Mean intimal area in data set [1] (Group 1 H+E− Inj+, no pulsing) is listed as 0.778 sq. mm; in data set [1] (setting [2]), 0.067 sq. mm. The Medial area in data set [1] (Group 1 H+E− Inj+, no pulsing) is given as 0.254 sq. mm; in data set [1] (setting [2]), 0.338 sq. mm. Also, the Intima/media thickness ratio in data set [1] (Group 1 H+E− Inj+: heparin 200 IU local, no electrical pulsing) is recorded as 2.96; in data set [1] (Group 2 H+E+ Inj+: heparin 200 IU local plus 4 pulses 100 V 20 ms) it was 0.25. Further, the “Slope of linear regression, active lumen area versus IEL area” value is on record as 0.57 in data set [1] (H+E+ group) and 0.17 in data set [1] (H+E− group). Besides, the “Neointima formation (in words)” value in data set [1] (H+E+: heparinized, electroporated balloon injured arteries, versus H+E−) is reported as “significant reduction in the volume of neointima; also recorded: vastly reduced neointimal thickness; also recorded: strong reduction in the formation of neointimal volume”; in data set [1] (H+E−: heparinized, non-electroporated balloon injured arteries) it was “marked proliferation of neointima; also recorded: pronounced neointima formation”. Besides, the “Pre-sacrificial electrocardiogram (Lead II)” value in data set [1] (all groups) is “did not reveal any rhythm abnormality”. Besides, in data set [1] (electroporation-enhanced delivery of heparin), the “Period of inhibition of neointimal growth and favorable remodeling” value is “at least 28 days”. The “Tolerability of surgery and arterial electroporation” value in data set [1] (rats, behavior and weight) was “tolerated the surgery and arterial electroporation well”.

As for hirudin, in the data set on porcine carotid artery, the “Fraction of drug washed out” value was 80% and the “Level in the artery” value is “the same as for passive delivery”.
